According to the supplement of paper PMC11061612:

Tests used:
[1] = compound: Nc1ccn([C@@H]2O[C@H](CO)[C@@H](O)C2(F)F)c(=O)n1 [Gemcitabine]; conditions: max 0.3 µM
How it was run: (§1)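 Following 24 hours at 37°C and 5% CO2, cancer cell lines in 1536-well plates with 7.5 μl DMEM/F12 or RPMI and 10% FBS were dosed for 72 hours, final DMSO typically being 0.2%. CellTiter-Glo 2.0 luminescence, scaled between blank-well and DMSO-well means, gave the viability readout. Dose responses were fitted to a two-parameter logistic curve with a non-linear mixed effects model, and the single-agent IC50 was derived from this fit.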

[2] = compound: CC(=O)O[C@H]1C(=O)[C@@]2(C)[C@H]([C@H](OC(=O)c3ccccc3)[C@]3(O)C[C@H](OC(=O)[C@H](O)[C@@H](NC(=O)c4ccccc4)c4ccccc4)C(C)=C1C3(C)C)[C@]1(OC(C)=O)CO[C@@H]1C[C@@H]2O [Paclitaxel]; conditions: max 3 µM
How it was run: as §1

[3] = compound: Cc1nc(-c2cn3c(n2)-c2ccc(-c4cnn(C(C)(C)C(N)=O)c4)cc2OCC3)n(C(C)C)n1 [Taselisib]; conditions: max 10 µM
How it was run: as §1

[4] = compound: O=C(Nc1ccc2[nH]nc(-c3ccncc3)c2c1)[C@@H]1CCN(CC(=O)N2CCN(c3ccc(-c4ncccn4)cc3)CC2)C1; conditions: max 5 µM
How it was run: as §1

[5] = compound: COc1cc([C@@H]2c3cc4c(cc3[C@@H](O[C@@H]3O[C@@H]5CO[C@@H](C)O[C@H]5[C@H](O)[C@H]3O)[C@H]3COC(=O)[C@H]23)OCO4)cc(OC)c1O [Etoposide]; conditions: max 10 µM
How it was run: as §1

[6] = compound: C=CCn1c(=O)c2cnc(Nc3ccc(N4CCN(C)CC4)cc3)nc2n1-c1cccc(C(C)(C)O)n1 [AZD1775]; conditions: max 3 µM
How it was run: as §1

[7] = compound: CC(C)n1c(=O)n(C)c2cnc3cc(F)c(-c4ccc(OCCCN5CCCCC5)nc4)cc3c21 [AZD1390]; conditions: max 0.3 µM
How it was run: as §1

[8] = compound: COc1cc2ncnc(Nc3ccc(F)c(Cl)c3)c2cc1OCCCN1CCOCC1 [Gefitinib]; conditions: max 10 µM
How it was run: as §1

[9] = compound: O=c1[nH]cc(F)c(=O)[nH]1 [5-Fluorouracil]; conditions: max 20 µM
How it was run: as §1

[10] = compound: N#Cc1cnc(Nc2cc(NC[C@H]3CNCCO3)c(C(F)(F)F)cn2)cn1 [SRA737]; conditions: max 10 µM
How it was run: as §1

[11] = compound: CC(=O)Nc1cccc(-n2c(=O)n(C3CC3)c(=O)c3c(Nc4ccc(I)cc4F)n(C)c(=O)c(C)c32)c1 [Trametinib]; conditions: max 1 µM
How it was run: as §1

[12] = compound: CCc1c2c(nc3ccc(O)cc13)-c1cc3c(c(=O)n1C2)COC(=O)[C@]3(O)CC [SN-38]; conditions: max 0.3 µM
How it was run: as §1

[13] = compound: C1CN(CCC1(C(=O)N[C@@H](CCO)C2=CC=C(C=C2)Cl)N)C3=NC=NC4=C3C=CN4 [AZD5363]; conditions: max 10 µM
How it was run: as §1

[14] = compound: C1CC(C1)(C(=O)[O-])C(=O)[O-].N.N.[Pt+2] [Carboplatin]; conditions: max 10 µM
How it was run: as §1

[15] = compound: COc1cc(Nc2ncc3c(n2)-c2ccc(Cl)cc2C(c2c(F)cccc2OC)=NC3)ccc1C(=O)O [Alisertib]; conditions: max 10 µM
How it was run: as §1

[16] = compound: C[C@@H](c1ccc2nccn2c1)n1nnc2ncc(-c3cnn(C)c3)nc21 [Savolitinib]; conditions: max 1 µM
How it was run: as §1

[17] = compound: CC(=O)c1c(C)c2cnc(Nc3ccc(N4CCNCC4)cn3)nc2n(C2CCCC2)c1=O [Palbociclib]; conditions: max 10 µM
How it was run: as §1

[18] = compound: NC1(c2ccc(-c3nc4ccn5c(=O)[nH]nc5c4cc3-c3ccccc3)cc2)CCC1 [MK-2206]; conditions: max 10 µM
How it was run: as §1

[19] = compound: O=C(c1cc(Cc2n[nH]c(=O)c3ccccc23)ccc1F)N1CCN(C(=O)C2CC2)CC1 [Olaparib]; conditions: max 10 µM
How it was run: as §1

[20] = compound: C[C@@H](Oc1cc(-c2cnn(C3CCNCC3)c2)cnc1N)c1c(Cl)ccc(F)c1Cl [Crizotinib]; conditions: max 10 µM
How it was run: as §1

[21] = compound: CS(=O)(=O)CCNCc1ccc(-c2ccc3ncnc(Nc4ccc(OCc5cccc(F)c5)c(Cl)c4)c3c2)o1 [Lapatinib]; conditions: max 10 µM
How it was run: as §1

[22] = compound: Cc1cc2ncnn2cc1Nc1ncc2c(n1)n(C1CCOCC1)c(=O)n2C [AZD7648]; conditions: max 10 µM
How it was run: as §1

[23] = compound: C[C@@H](Nc1cc(F)cc(F)c1)c1cc(C(=O)N(C)C)cc2c(=O)cc(N3CCOCC3)oc12 [AZD8186]; conditions: max 10 µM
How it was run: as §1

[24] = compound: CCN(CCO)CCCOc1ccc2c(Nc3cc(CC(=O)Nc4cccc(F)c4)[nH]n3)ncnc2c1 [AZD2811]; conditions: max 1 µM
How it was run: as §1

[25] = compound: CC1(C)CCC(CN2CCN(c3ccc(C(=O)NS(=O)(=O)c4ccc(NCC5CCOCC5)c([N+](=O)[O-])c4)c(Oc4cnc5[nH]ccc5c4)c3)CC2)=C(c2ccc(Cl)cc2)C1 [Venetoclax]; conditions: max 1 µM
How it was run: as §1

[26] = compound: CN(C)CCCOc1ccc(-c2ccc3ncc4c(c3c2)n(C2CCOCC2)c(=O)n4C)cn1 [AZD0156]; conditions: max 3 µM
How it was run: as §1

[27] = compound: C[C@@H]1COCCN1C2=NC(=NC(=C2)C3(CC3)[S@](=N)(=O)C)C4=C5C=CNC5=NC=C4 [AZD6738]; conditions: max 10 µM
How it was run: as §1

[28] = compound: COc1nnc2ccc(N3CCC(c4ccc(OCCN5CCN(C)C(=O)[C@H]5C)cc4)CC3)nn12 [AZD5153]; conditions: max 1 µM
How it was run: as §1

[29] = compound: COc1cccc(OCCCN)c1-c1cc(Nc2cnc(C#N)cn2)n[nH]1 [Prexasertib]; conditions: max 1 µM
How it was run: as §1

[30] = compound: Cn1cnc2c(F)c(Nc3ccc(Br)cc3Cl)c(C(=O)NOCCO)cc21 [Selumetinib]; conditions: max 10 µM
How it was run: as §1

[31] = compound: Cc1c2c(nn1C)CSCc1cc(n(C)n1)CSc1cc(c3ccccc3c1)OCCCc1c(C(=O)O)n(C)c3c-2c(Cl)ccc13 [AZD5991]; conditions: max 1 µM
How it was run: as §1

[32] = compound: CC1=C(C(=CC=C1)Cl)NC(=O)C2=CN=C(S2)NC3=CC(=NC(=N3)C)N4CCN(CC4)CCO [Dasatinib]; conditions: max 2 µM
How it was run: as §1

[33] = compound: CC1=CN2[C@@H](C1)C=NC3=CC(=C(C=C3C2=O)OC)OCCCCCOC4=C(C=C5C(=C4)N=C[C@@H]6CC(=CN6C5=O)C)OC [SG3199]; conditions: max 0.001 µM
How it was run: as §1

[34] = compound: COc1cccc2c1C(=O)c1c(O)c3c(c(O)c1C2=O)C[C@@](O)(C(=O)CO)C[C@@H]3O[C@H]1C[C@H](N)[C@H](O)[C@H](C)O1 [Doxorubicin]; conditions: max 1 µM
How it was run: as §1

[35] = compound: CN(CC[C@H](CSC1=CC=CC=C1)NC2=C(C=C(C=C2)S(=O)(=O)NC(=O)C3=CC=C(C=C3)N4CCC(CC4)[C@H](C5=CC=CC=C5C6=CC=C(C=C6)Cl)O)S(=O)(=O)C(F)(F)F)CCO [AZD4320]; conditions: max 1 µM
How it was run: as §1

| Cell Line | IC50, cell viability 72 h [1] [nM] | IC50, cell viability 72 h [2] [nM] | IC50, cell viability 72 h [3] [nM] | IC50, cell viability 72 h [4] [nM] | IC50, cell viability 72 h [5] [µM] | IC50, cell viability 72 h [6] [nM] | IC50, cell viability 72 h [7] [nM] | IC50, cell viability 72 h [8] [µM] | IC50, cell viability 72 h [9] [µM] | IC50, cell viability 72 h [10] [nM] | IC50, cell viability 72 h [11] [nM] | IC50, cell viability 72 h [12] [nM] | IC50, cell viability 72 h [13] [µM] | IC50, cell viability 72 h [14] [µM] | IC50, cell viability 72 h [15] [nM] | IC50, cell viability 72 h [16] [nM] | IC50, cell viability 72 h [17] [µM] | IC50, cell viability 72 h [18] [nM] | IC50, cell viability 72 h [19] [µM] | IC50, cell viability 72 h [20] [µM] | IC50, cell viability 72 h [21] [µM] | IC50, cell viability 72 h [22] [µM] | IC50, cell viability 72 h [23] [µM] | IC50, cell viability 72 h [24] [nM] | IC50, cell viability 72 h [25] [nM] | IC50, cell viability 72 h [26] [nM] | IC50, cell viability 72 h [27] [nM] | IC50, cell viability 72 h [28] [nM] | IC50, cell viability 72 h [29] [nM] | IC50, cell viability 72 h [30] [µM] | IC50, cell viability 72 h [31] [nM] | IC50, cell viability 72 h [32] [nM] | IC50, cell viability 72 h [33] [nM] | IC50, cell viability 72 h [34] [nM] | IC50, cell viability 72 h [35] [nM] |
| --- | --- | --- | --- | --- | --- | --- | --- | --- | --- | --- | --- | --- | --- | --- | --- | --- | --- | --- | --- | --- | --- | --- | --- | --- | --- | --- | --- | --- | --- | --- | --- | --- | --- | --- | --- |
| LOUCY (T-Lymphoblastic Leukemia) | > 300 | 13.5 | 3530 | > 5000 | 5 | 257 | > 300 | > 10 | > 20 | 2720 | > 1000 | 172 | 2.45 | > 10 | 597 | > 1000 | > 10 | 1230 | > 10 | 4 | > 10 | 7.43 | > 10 | 8.15 | 31.7 | > 3000 | 1310 | 385 | 6.97 | > 10 | > 1000 | > 2000 | > 1 | > 1000 | 3.75 |
| NCI-H810 (Non-Small Cell Lung Carcinoma) | > 300 | 282 | > 10000 | > 5000 | > 10 | 437 | > 300 | > 10 | > 20 | > 10000 | > 1000 | 202 | > 10 | > 10 | 1380 | > 1000 | > 10 | > 10000 | > 10 | > 10 | > 10 | > 10 | > 10 | 330 | > 1000 | > 3000 | > 10000 | 442 | 52.8 | > 10 | > 1000 | > 2000 | > 1 | 880 | > 1000 |
| NCI-H1755 (Lung Adenocarcinoma) | > 300 | 58.2 | 2410 | 1950 | > 10 | 363 | > 300 | > 10 | > 20 | 2300 | 444 | > 300 | > 10 | > 10 | 3910 | > 1000 | 9 | > 10000 | > 10 | 3.97 | > 10 | > 10 | > 10 | > 1000 | > 1000 | > 3000 | 2080 | > 1000 | 10.8 | > 10 | > 1000 | 211 | > 1 | > 1000 | > 1000 |
| NKM-1 (Acute Myeloid Leukemia) | 5.13 | 3.66 | 201 | 2000 | 0.496 | 455 | > 300 | > 10 | 3.19 | 2370 | 83.3 | 2.01 | 8.12 | > 10 | 177 | > 1000 | 1.25 | 855 | 4.42 | 2.03 | > 10 | > 10 | 1.27 | 502 | 102 | > 3000 | 1860 | 59.4 | 15 | 2.7 | 49.3 | 147 | > 1 | 24.1 | 7.73 |
| OV-90 (Ovarian Carcinoma) | > 300 | > 3000 | > 10000 | 1880 | > 10 | > 3000 | > 300 | > 10 | > 20 | > 10000 | 83.7 | 265 | > 10 | > 10 | > 10000 | > 1000 | > 10 | > 10000 | > 10 | > 10 | > 10 | > 10 | > 10 | > 1000 | > 1000 | > 3000 | > 10000 | > 1000 | 523 | 7.81 | > 1000 | > 2000 | > 1 | > 1000 | > 1000 |
